Experiments:
[1] = mouse, in vivo
Procedure: It seemed possible, therefore, that the cobinamide administered to the mice could have increased their blood pressure, since ·NO is a potent vasodilator. Because diabetes can increase blood pressure, these studies were performed on a parallel set of non-diabetic mice of the same strain and sex and using the same concentration of histidyl-cobinamide in the drinking water as in the above-described studies.

[2] = second order; literature values; cited from earlier work
[3] = literature values, cited from earlier work
[4] = second order; literature values; cited from earlier work; remark: listed apart in the source
[5] = literature values; not strictly comparable with third-order constants; cited from earlier work
D. melanogaster = experiment: Survival of fruit flies during paraquat poisoning; assay type: in vivo; details: 20 mM paraquat with 0.8 mM drug in food, over 7 d
Procedure: The number of live flies was counted each day for 7 d. The experiment was repeated seven times, for a total of 70 flies per condition. The percent surviving flies was calculated; error bars represent standard deviations and are shown in one direction only for sake of clarity. […] Chi, cobinamide in Panel A and histidyl-cobinamide in Panels B-K; Imp, imisopasem; MnTP, MnTBAP; CbL, cobalamin; DNPH, 2,4-dinitrophenylhydrazine; ND, non-diabetic; D, diabetic; Veh, vehicle.
To test cobinamide in a whole animal, D. melanogaster was selected for initial studies, and oxidative stressed was increased in the files by administering paraquat in their food. Cobinamide was again compared to imisopasem, MnTBAP, and hydroxocobalamin, all administered in food.

[6] = system: H9c2 rat embryonal cardiomyocytes; experiment: Mitochondrial superoxide content, MitoSOX Red fluorescence; assay type: cell-based; details: H9c2, 5 μM rotenone 30 min, drugs at 2.5 μM
Procedure: (§1) FIGS. 3A-3H. […] FIGS. 3A-3B. […] FIG. 3A. […] FIG. 3B. […] FIGS. 3C-3D. […] FIG. 3D. […] FIGS. 3E-3F. […] FIG. 3E. Representative blots are shown. […] FIG. 3F. […] FIG. 3G. […] FIG. 3H.
H9c2 cells were plated on glass cover slips in 24 well dishes, and 16 h later the medium was changed to phenol red-free DMEM supplemented with 20 mM Hepes, 0.1% fetal bovine serum, and 0.5% bovine serum albumin. […] MitoSOX Red is a dihydroethidium derivative containing triphenyl-phosphonium, which localizes it to respiring mitochondria. Its reaction with O2·^− yields 2-hydroxy-mitoethidium (2-OH-Mito-E″), whereas its reaction with other oxidative species yields mitoethidium (Mito-E^+)^67. These two oxidative derivatives have overlapping fluorescence spectra, but they can be distinguished by high performance liquid chromatography (HPLC)^68. Rotenone increased 2-OH-Mito-E^+ about two-fold, without increasing Mito-E^+. Thus, any increased fluorescence observed on treating cells with rotenone could be ascribed to an increase in 2-OH-Mito-E^+, and decreased fluorescence by an anti-oxidant in rotenone-treated cells was likely from a decrease in 2-OH-Mito-E^+.
(§2) The cells were then washed once with PBS, placed back in the DMEM experimental medium, and incubated with the indicated drugs for 30 min. At the end of the incubation period, nuclei of both the MitoSOX Red- and JC-1-treated cells were stained with […] 4′,6-diamidino-2-phenyl-indole (DAPI) for 3 min, washed once with PBS, and returned to the DMEM experimental medium. The cover slips were removed from the wells, mounted in the DMEM experimental medium, and red (MitoSOX Red and JC-1 aggregates), green (JC-1 monomers), and blue (DAPI) fluorescence intensity was assessed using a Keyence BZ-X700 fluorescence microscope at the following paired excitation/emission wavelengths, respectively: 560/630, 490/525, and 360/460 nm.
To assess if cobinamide reduces oxidative stress in cells and to compare its […] efficacy to that of cobalamin, imisopasem, and MnTBAP, several sets of experiments were performed. First, whether cobinamide reduces mitochondrial-generated O2·^− was evaluated using the fluorescent probe MitoSOX Red. H9c2 rat embryonal cardiomyocytes were treated with rotenone, an inhibitor of complex I, to increase mitochondrial O2·^−. […] Monitoring the UV-visible spectrum of cobinamide is a sensitive means to assess ligand binding^38.

[7] = system: Jun N-terminal kinase (JNK) phosphorylation in H9c2 cells; experiment: H2O2-induced JNK phosphorylation, immunoblotting; assay type: cell-based, rat; details: H9c2, 100 μM H2O2 30 min, drugs at 100 μM
Excerpt: as §1

COS-7 cells = details: COS-7, 1 mM paraquat 3 h, 100 μM drug, counted 48 h later
Procedure: as §1
Finally, whether cobinamide could alleviate the effects of oxidative stress induced by yet another mechanism in a different cell type was tested using paraquat-treated COS-7 cells. Paraquat generates O2·^− through a redox cycling mechanism and increases both intracellular O2·^− and H2O2^42.

H9c2 cells = experiment: Mitochondrial membrane potential, JC-1 red to green fluorescence; assay type: cell-based, rat; details: H9c2, 5 μM rotenone 30 min, drugs at 2.5 μM
Procedure: as §1, §2
Increased mitochondrial O2·^− by rotenone would be expected to reduce the mitochondrial membrane potential (ΔΨm), due in part to activation of uncoupling proteins^39. […] Rotenone caused an almost complete loss of red fluorescence and a striking increase in green fluorescence in the cells, indicating a marked decrease in ΔΨm (FIGS. 3C-3D).

Oxidation in the presence of oxygen	Compound	Blood pressure [1]	Rate constant, reaction with superoxide (O2·^−), published [2] [M⁻¹ s⁻¹]	Ka, binding of nitric oxide (·NO), published [3]	Rate constant, reaction with peroxynitrite (ONOO^−), published [4]	Rate constant, reaction with hydrogen peroxide (H2O2), published [5]	Rate constant, reaction with nitric oxide (·NO), published ([3]; second order)	Effect on mortality of paraquat-exposed flies (D. melanogaster)	MitoSOX red fluorescence in rotenone-treated cells [6]	JNK phosphorylation in H2O2-treated cells [7]	Effect on cell growth of paraquat-treated cells (COS-7 cells)	JC-1 red to green fluorescence ratio (ΔΨm) in rotenone-treated cells (H9c2 cells)
	histidyl-cobinamide	No difference in the blood pressure										
rapidly oxidized back to cobalamin(III)	C/C1=C2/[N-][C@H]([C@H](CC(N)=O)[C@@]2(C)CCC(=O)NC[C@H](C)OP(=O)([O-])O[C@H]2[C@@H](O)[C@@H](n3cnc4cc(C)c(C)cc43)O[C@@H]2CO)[C@]2(C)N=C(/C(C)=C3N=C(/C=C4N=C1[C@@H](CCC(N)=O)C\4(C)C)[C@@H](CCC(N)=O)[C@]\3(C)CC(N)=O)[C@@H](CCC(N)=O)[C@]2(C)CC(N)=O.[Co+2] (stereo in doubt) [Cobalamin(II)]		3.8e+08	Ka: 1.5 × 10^8 (51) M^−1	3.7 × 10^5 (14) M^−1 s^−1	1.4 × 10^2						
	O=C(O)c1ccc(-c2c3nc(c(-c4ccc(C(=O)O)cc4)c4ccc([n-]4)c(-c4ccc(C(=O)O)cc4)c4nc(c(-c5ccc(C(=O)O)cc5)c5ccc2[n-]5)C=C4)C=C3)cc1.[Mn+3] [MnTBAP, manganese(III)tetrakis(4-benzoicacid)porphyrin]		~4.0		~1 × 10^5 (27) M^−1 s^−1	5.8	No activity (28)	lesser effect	reduced the fluorescent signal substantially	small non-significant effects	neither imisopasem nor MnTBAP had an effect	modest degrees of recovery

Reference: patent US20260069606A1, “Oxidative Stress and Diabetes Treatment with Cobinamide” (The Regents of the University of California, priority 2022, published 2026)
